#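 Method: 48-hour compound exposure of cells in 96-well plates, five concentrations, linear interpolation of endpoints. At the GI50, growth is halved. TGI marks complete inhibition of growth.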
# Experiments:
# Assay in all cases: NCI anticancer screen, dose series, 48 h
# 786-0 renal = test system: 786-0 renal
# A549 NSCLC = test system: A549 NSCLC
# ACHN renal = test system: ACHN renal
# BT-549 breast = test system: BT-549 breast
# CCRF-CEM leukemia = test system: CCRF-CEM leukemia
# COLO 205 colon = test system: COLO 205 colon
# DU-145 prostate = test system: DU-145 prostate
# EKVX NSCLC = test system: EKVX NSCLC
# HCC-2998 colon = test system: HCC-2998 colon
# HCT-116 colon = test system: HCT-116 colon
# HCT-15 colon = test system: HCT-15 colon
# HL-60(TB) leukemia = test system: HL-60(TB) leukemia
# HOP-62 NSCLC = test system: HOP-62 NSCLC
# HOP-92 NSCLC = test system: HOP-92 NSCLC
# HS 578T breast = test system: HS 578T breast
# HT29 colon = test system: HT29 colon
# IGROV1 ovarian = test system: IGROV1 ovarian
# K-562 leukemia = test system: K-562 leukemia
# KM12 colon = test system: KM12 colon
# LOX IMVI melanoma = test system: LOX IMVI melanoma
# M14 melanoma = test system: M14 melanoma
# MALME-3M melanoma = test system: MALME-3M melanoma
# MCF7 breast = test system: MCF7 breast
# MDA-MB-231 breast = test system: MDA-MB-231 breast
# MDA-MB-435 = test system: MDA-MB-435
# MOLT-4 leukemia = test system: MOLT-4 leukemia
# NCI-H226 lung = test system: NCI-H226 lung
# NCI-H23 lung = test system: NCI-H23 lung
# NCI-H522 lung = test system: NCI-H522 lung
# NCI/ADR-RES ovarian = test system: NCI/ADR-RES ovarian
# OVCAR-3 ovarian = test system: OVCAR-3 ovarian
# OVCAR-4 ovarian = test system: OVCAR-4 ovarian
# OVCAR-5 ovarian = test system: OVCAR-5 ovarian
# OVCAR-8 ovarian = test system: OVCAR-8 ovarian
# PC-3 prostate = test system: PC-3 prostate
# RPMI-8226 leukemia = test system: RPMI-8226 leukemia
# RXF 393 renal = test system: RXF 393 renal
# SF-268 CNS = test system: SF-268 CNS
# SF-295 CNS = test system: SF-295 CNS
# SF-539 CNS = test system: SF-539 CNS
# SK-MEL-2 melanoma = test system: SK-MEL-2 melanoma
# SK-MEL-28 melanoma = test system: SK-MEL-28 melanoma
# SK-MEL-5 melanoma = test system: SK-MEL-5 melanoma
# SK-OV-3 ovarian = test system: SK-OV-3 ovarian
# SN12C renal = test system: SN12C renal
# SNB-19 CNS = test system: SNB-19 CNS
# SNB-75 CNS = test system: SNB-75 CNS
# SR leukemia = test system: SR leukemia
# SW-620 colon = test system: SW-620 colon
# T-47D breast = test system: T-47D breast
# TK-10 renal = test system: TK-10 renal
# U251 CNS = test system: U251 CNS
# UACC-257 melanoma = test system: UACC-257 melanoma
# UACC-62 melanoma = test system: UACC-62 melanoma
# UO-31 renal = test system: UO-31 renal
smiles,measurement,setting,value
Nc1nc2cc(-c3ccc4ncc(C(=O)N5CCOCC5)n4c3)ccc2o1,GI50,786-0 renal,14.6 µM
same,TGI,786-0 renal,> 100 µM
same,GI50,A549 NSCLC,4.86 µM
same,TGI,A549 NSCLC,> 100 µM
same,GI50,ACHN renal,4.28 µM
same,TGI,ACHN renal,> 100 µM
same,GI50,BT-549 breast,4.39 µM
same,TGI,BT-549 breast,37.9 µM
same,GI50,CCRF-CEM leukemia,8.74 µM
same,TGI,CCRF-CEM leukemia,> 100 µM
same,GI50,COLO 205 colon,3.44 µM
same,TGI,COLO 205 colon,> 100 µM
same,GI50,DU-145 prostate,9.09 µM
same,TGI,DU-145 prostate,> 100 µM
same,GI50,EKVX NSCLC,4.26 µM
same,TGI,EKVX NSCLC,> 100 µM
same,GI50,HCC-2998 colon,10 µM
same,TGI,HCC-2998 colon,> 100 µM
same,GI50,HCT-116 colon,4.4 µM
same,TGI,HCT-116 colon,> 100 µM
same,GI50,HCT-15 colon,5.4 µM
same,TGI,HCT-15 colon,> 100 µM
same,GI50,HL-60(TB) leukemia,2.95 µM
same,TGI,HL-60(TB) leukemia,60.9 µM
same,GI50,HOP-62 NSCLC,4.23 µM
same,TGI,HOP-62 NSCLC,49.3 µM
same,GI50,HOP-92 NSCLC,1.35 µM
same,TGI,HOP-92 NSCLC,9.53 µM
same,GI50,HS 578T breast,3.36 µM
same,TGI,HS 578T breast,30 µM
same,GI50,HT29 colon,3.52 µM
same,TGI,HT29 colon,> 100 µM
same,GI50,IGROV1 ovarian,1.74 µM
same,TGI,IGROV1 ovarian,6.6 µM
same,GI50,K-562 leukemia,47 µM
same,TGI,K-562 leukemia,> 100 µM
same,GI50,KM12 colon,14.4 µM
same,TGI,KM12 colon,> 100 µM
same,GI50,LOX IMVI melanoma,4.74 µM
same,TGI,LOX IMVI melanoma,> 100 µM
same,GI50,M14 melanoma,4.64 µM
same,TGI,M14 melanoma,> 100 µM
same,GI50,MALME-3M melanoma,1.23 µM
same,TGI,MALME-3M melanoma,7.15 µM
same,GI50,MCF7 breast,1.39 µM
same,TGI,MCF7 breast,> 100 µM
same,GI50,MDA-MB-231 breast,4.89 µM
same,TGI,MDA-MB-231 breast,67.9 µM
same,GI50,MDA-MB-435,5.71 µM
same,TGI,MDA-MB-435,> 100 µM
same,GI50,MOLT-4 leukemia,4.15 µM
same,TGI,MOLT-4 leukemia,74.9 µM
same,GI50,NCI-H226 lung,5.2 µM
same,TGI,NCI-H226 lung,> 100 µM
same,GI50,NCI-H23 lung,6.58 µM
same,TGI,NCI-H23 lung,> 100 µM
same,GI50,NCI-H522 lung,7.13 µM
same,TGI,NCI-H522 lung,88.5 µM
same,GI50,NCI/ADR-RES ovarian,44.6 µM
same,TGI,NCI/ADR-RES ovarian,> 100 µM
same,GI50,OVCAR-3 ovarian,13.9 µM
same,TGI,OVCAR-3 ovarian,> 100 µM
same,GI50,OVCAR-4 ovarian,6.07 µM
same,TGI,OVCAR-4 ovarian,> 100 µM
same,GI50,OVCAR-5 ovarian,2.74 µM
same,TGI,OVCAR-5 ovarian,> 100 µM
same,GI50,OVCAR-8 ovarian,13.4 µM
same,TGI,OVCAR-8 ovarian,> 100 µM
same,GI50,PC-3 prostate,3.19 µM
same,TGI,PC-3 prostate,> 100 µM
same,GI50,RPMI-8226 leukemia,6.36 µM
same,TGI,RPMI-8226 leukemia,> 100 µM
same,GI50,RXF 393 renal,5.51 µM
same,TGI,RXF 393 renal,36.7 µM
same,GI50,SF-268 CNS,9.82 µM
same,TGI,SF-268 CNS,> 100 µM
same,GI50,SF-295 CNS,5.53 µM
same,TGI,SF-295 CNS,64.8 µM
same,GI50,SF-539 CNS,9.81 µM
same,TGI,SF-539 CNS,73.3 µM
same,GI50,SK-MEL-2 melanoma,5.33 µM
same,TGI,SK-MEL-2 melanoma,46.8 µM
same,GI50,SK-MEL-28 melanoma,5.4 µM
same,TGI,SK-MEL-28 melanoma,> 100 µM
same,GI50,SK-MEL-5 melanoma,3.95 µM
same,TGI,SK-MEL-5 melanoma,50.7 µM
same,GI50,SK-OV-3 ovarian,1.59 µM
same,TGI,SK-OV-3 ovarian,7.16 µM
same,GI50,SN12C renal,6.66 µM
same,TGI,SN12C renal,> 100 µM
same,GI50,SNB-19 CNS,15.4 µM
same,TGI,SNB-19 CNS,84.5 µM
same,GI50,SNB-75 CNS,0.916 µM
same,TGI,SNB-75 CNS,15.7 µM
same,GI50,SR leukemia,2.85 µM
same,TGI,SR leukemia,> 100 µM
same,GI50,SW-620 colon,10.8 µM
same,TGI,SW-620 colon,> 100 µM
same,GI50,T-47D breast,0.417 µM
same,TGI,T-47D breast,3.52 µM
same,GI50,TK-10 renal,2.41 µM
same,TGI,TK-10 renal,27.5 µM
same,GI50,U251 CNS,11.1 µM
same,TGI,U251 CNS,80.3 µM
same,GI50,UACC-257 melanoma,7.8 µM
same,TGI,UACC-257 melanoma,> 100 µM
same,GI50,UACC-62 melanoma,4.14 µM
same,TGI,UACC-62 melanoma,> 100 µM
same,GI50,UO-31 renal,2.09 µM
same,TGI,UO-31 renal,35.6 µM

# — PubChem BioAssay (NCI)
